# Measured values published in article PMC3530927 (Journal of medicinal chemistry, 2012).
# Tests used:
# KCNQ2 channels = KCNQ2 channels (Homo sapiens, UniProt O43526); test: KCNQ2 automated patch clamp assay; assay type: cell-based; details: for inhibition at 30 µM: read-out: KCNQ2 % at 30 μM (IC50 column, saturating response not obtained); for fold loss of potency: KCNQ2 inhibitor, compared to the unsubstituted phenyl group (5)
# [1] = >300 assays performed within the MLPCN network; details: weakly active in each of four assays out of >300
# potassium channel (hERG) = potassium channel (hERG) (Homo sapiens, UniProt Q12809); test: Ricerca Lead Profiling Screen radioligand binding
# potassium channel (KATP) = test: Ricerca Lead Profiling Screen radioligand binding
# calcium channel, N-type = calcium channel, N-type (Homo sapiens, UniProt Q00975); test: Ricerca Lead Profiling Screen radioligand binding
# Intrinsic clearance = assay type: in vitro ADME; details: rat hepatic microsomes
# [2] = Snapshot in vivo PK, IP plasma and brain levels; details: brain, 10 mg/kg
# calcium channel, L-type = test: Ricerca Lead Profiling Screen radioligand binding
# [3] = KCNQ2, common assay system (PubChem AID: 588426) vs reported values
# potassium channel (hERG), sequence (Q12809 whole entry): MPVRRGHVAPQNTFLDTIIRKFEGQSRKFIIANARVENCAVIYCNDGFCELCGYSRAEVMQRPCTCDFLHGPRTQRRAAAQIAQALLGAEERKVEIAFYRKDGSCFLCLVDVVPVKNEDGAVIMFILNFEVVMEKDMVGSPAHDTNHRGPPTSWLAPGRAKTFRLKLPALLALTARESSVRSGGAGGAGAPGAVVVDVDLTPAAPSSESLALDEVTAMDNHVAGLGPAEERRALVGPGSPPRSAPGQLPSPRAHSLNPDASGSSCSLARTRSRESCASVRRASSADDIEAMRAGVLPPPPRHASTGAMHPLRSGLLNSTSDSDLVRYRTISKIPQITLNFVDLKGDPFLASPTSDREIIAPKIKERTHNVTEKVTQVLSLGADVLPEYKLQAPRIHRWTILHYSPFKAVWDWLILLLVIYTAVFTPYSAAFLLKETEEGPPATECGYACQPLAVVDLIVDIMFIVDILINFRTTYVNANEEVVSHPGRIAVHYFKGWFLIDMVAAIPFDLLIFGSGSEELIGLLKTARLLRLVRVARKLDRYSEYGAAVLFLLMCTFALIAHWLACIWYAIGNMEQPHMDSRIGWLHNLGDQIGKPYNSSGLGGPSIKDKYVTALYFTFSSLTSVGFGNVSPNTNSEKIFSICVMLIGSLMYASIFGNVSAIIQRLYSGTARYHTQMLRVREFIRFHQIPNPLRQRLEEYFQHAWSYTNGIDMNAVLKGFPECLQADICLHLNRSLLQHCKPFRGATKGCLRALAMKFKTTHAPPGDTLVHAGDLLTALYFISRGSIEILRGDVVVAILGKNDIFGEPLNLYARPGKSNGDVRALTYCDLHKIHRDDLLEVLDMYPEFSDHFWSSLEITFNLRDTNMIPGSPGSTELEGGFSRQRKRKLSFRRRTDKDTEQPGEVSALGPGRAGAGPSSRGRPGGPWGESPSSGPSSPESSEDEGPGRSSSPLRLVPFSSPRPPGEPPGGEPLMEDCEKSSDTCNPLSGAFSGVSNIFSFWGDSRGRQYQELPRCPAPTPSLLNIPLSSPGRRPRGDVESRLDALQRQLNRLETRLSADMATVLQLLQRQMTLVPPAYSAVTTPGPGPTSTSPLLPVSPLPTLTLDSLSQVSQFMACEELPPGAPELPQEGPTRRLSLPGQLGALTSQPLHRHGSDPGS
# calcium channel, N-type, sequence (Q00975 whole entry): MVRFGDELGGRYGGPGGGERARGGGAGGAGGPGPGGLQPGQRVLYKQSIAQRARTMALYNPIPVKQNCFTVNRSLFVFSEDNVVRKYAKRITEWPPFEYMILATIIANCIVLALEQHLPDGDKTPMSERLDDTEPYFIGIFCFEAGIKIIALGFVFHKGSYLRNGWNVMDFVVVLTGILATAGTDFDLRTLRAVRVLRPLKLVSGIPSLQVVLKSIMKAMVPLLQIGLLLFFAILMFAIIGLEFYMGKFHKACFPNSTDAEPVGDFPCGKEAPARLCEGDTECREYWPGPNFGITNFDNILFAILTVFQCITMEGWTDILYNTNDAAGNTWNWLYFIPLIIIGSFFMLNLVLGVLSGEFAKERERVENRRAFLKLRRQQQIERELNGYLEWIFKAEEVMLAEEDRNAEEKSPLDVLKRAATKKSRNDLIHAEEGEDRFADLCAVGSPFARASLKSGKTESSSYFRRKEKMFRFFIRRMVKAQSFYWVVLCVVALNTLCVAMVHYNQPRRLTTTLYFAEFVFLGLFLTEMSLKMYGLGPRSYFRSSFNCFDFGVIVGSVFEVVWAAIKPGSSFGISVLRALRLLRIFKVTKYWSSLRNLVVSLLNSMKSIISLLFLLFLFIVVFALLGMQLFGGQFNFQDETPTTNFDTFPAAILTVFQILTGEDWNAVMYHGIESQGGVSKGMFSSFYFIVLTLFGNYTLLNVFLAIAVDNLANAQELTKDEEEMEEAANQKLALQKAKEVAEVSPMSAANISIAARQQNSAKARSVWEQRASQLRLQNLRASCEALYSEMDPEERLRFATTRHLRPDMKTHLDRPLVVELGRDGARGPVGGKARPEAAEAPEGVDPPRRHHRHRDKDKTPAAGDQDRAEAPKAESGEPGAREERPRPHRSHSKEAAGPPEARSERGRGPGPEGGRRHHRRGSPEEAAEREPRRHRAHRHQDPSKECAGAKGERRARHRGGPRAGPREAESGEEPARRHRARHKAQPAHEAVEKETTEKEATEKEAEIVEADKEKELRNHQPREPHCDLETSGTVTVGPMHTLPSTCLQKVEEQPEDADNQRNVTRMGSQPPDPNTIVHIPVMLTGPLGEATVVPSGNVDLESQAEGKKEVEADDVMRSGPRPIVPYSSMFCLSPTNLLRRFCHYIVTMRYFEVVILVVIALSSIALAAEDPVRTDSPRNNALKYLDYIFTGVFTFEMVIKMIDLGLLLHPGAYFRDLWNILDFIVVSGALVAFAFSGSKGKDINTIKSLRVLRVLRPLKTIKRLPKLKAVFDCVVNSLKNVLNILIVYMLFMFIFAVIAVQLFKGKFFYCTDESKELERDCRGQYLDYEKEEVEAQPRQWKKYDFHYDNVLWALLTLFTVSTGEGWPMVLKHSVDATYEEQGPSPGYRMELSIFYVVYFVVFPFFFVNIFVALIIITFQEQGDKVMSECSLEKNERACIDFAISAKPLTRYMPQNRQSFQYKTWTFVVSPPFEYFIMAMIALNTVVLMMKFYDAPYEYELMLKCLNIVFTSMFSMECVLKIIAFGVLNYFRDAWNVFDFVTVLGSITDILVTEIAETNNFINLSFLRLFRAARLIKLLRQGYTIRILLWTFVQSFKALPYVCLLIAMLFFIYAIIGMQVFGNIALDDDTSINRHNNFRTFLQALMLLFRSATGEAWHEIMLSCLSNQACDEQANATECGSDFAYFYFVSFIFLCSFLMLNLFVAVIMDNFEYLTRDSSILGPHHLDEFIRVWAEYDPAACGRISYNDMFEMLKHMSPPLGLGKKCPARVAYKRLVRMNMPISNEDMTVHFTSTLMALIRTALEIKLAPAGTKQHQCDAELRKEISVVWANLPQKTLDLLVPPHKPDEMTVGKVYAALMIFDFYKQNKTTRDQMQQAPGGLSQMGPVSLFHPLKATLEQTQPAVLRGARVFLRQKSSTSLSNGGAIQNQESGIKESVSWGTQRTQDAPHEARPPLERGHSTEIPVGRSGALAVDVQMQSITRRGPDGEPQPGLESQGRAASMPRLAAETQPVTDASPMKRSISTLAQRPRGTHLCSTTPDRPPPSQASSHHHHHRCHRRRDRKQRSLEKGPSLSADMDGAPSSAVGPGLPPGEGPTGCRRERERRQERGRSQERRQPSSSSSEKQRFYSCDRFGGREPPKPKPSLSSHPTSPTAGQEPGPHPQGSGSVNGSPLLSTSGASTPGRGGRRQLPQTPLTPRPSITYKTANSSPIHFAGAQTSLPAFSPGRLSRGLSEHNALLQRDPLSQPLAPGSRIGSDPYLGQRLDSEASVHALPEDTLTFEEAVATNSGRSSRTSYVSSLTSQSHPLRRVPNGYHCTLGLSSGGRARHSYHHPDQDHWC
SMILES,inhibition at 30 µM (KCNQ2 channels) [%],KCNQ2 activity (in words) (KCNQ2 channels),also measured
CCC(NC(=O)c1ccccc1N1CCCC1)c1ccccc1 (stereo not drawn) [compound 17],38,complete loss of activity,–
"O=C1N(c2ccccc2)c2ccccc2C1(Cc1ccncc1)Cc1ccncc1 [compound 2, Linopirdine, reference compound]",–,–,fold more potent compared to previous values (KCNQ2 channels; [3]): 8 – 10 fold
O=C(Cc1cccc(Cl)c1)Nc1cccc(N2CCCC2)c1 [compound 45],–,–,"fold loss of activity (KCNQ2 channels; KCNQ2 activator series, 3-pyrrolidine vs 2-pyrrolidine): ~ 5 fold"
CCC(C(=O)Nc1ccccc1N1CCCC1)c1ccccc1 (stereo not drawn) [compound 5],–,–,activity in four MLPCN assays not dependent on KCNQ2 [1]: > 15 µM
O=C(Nc1ccccc1N1CCCC1)C1CCOc2ccccc21 (stereo not drawn) [compound 16],–,not tolerated,–
CC(C)(C(=O)Nc1ccccc1N1CCCC1)c1ccccc1 [compound 15],–,not tolerated,–
CCC(C(=O)Nc1ccccc1N(C)C)c1ccccc1 (stereo not drawn) [compound 56],59.8,–,–
"O=C1c2ccccc2C(Cc2ccncc2)(Cc2ccncc2)c2ccccc21 [compound 1, XE-991, reference compound]",–,–,fold more potent compared to previous values (KCNQ2 channels; [3]): 8 – 10 fold
CCC(C(=O)Nc1ccccc1N1CCCC1)c1ccc(OC)c(OC)c1 (stereo not drawn) [compound 19],–,–,fold loss of potency (KCNQ2 channels): 125 fold
CCC(C(=O)N(C)c1ccccc1N1CCCC1)c1ccccc1 (stereo not drawn) [compound 18],–,complete loss of activity,–
"CC[C@H](C(=O)Nc1ccccc1N1CCCC1)c1ccccc1 [(S)-5, (S)-2-Phenyl-N-(2-(pyrrolidin-1-yl)phenyl)butanamide]",–,–,"potassium channel hERG binding (in words) (potassium channel (hERG)): not inhibited; potassium channel KATP binding (in words) (potassium channel (KATP)): not inhibited; calcium channel N-type binding (in words) (calcium channel, N-type): not inhibited; Rat CLHEP (Intrinsic clearance): 67.3 mL/min/kg; concentration at 1 h [2]: 672 nM; calcium channel L-type binding (in words) (calcium channel, L-type): not inhibited"
CCC(C(=O)Nc1ccccc1N1CCCCC1)c1ccccc1 (stereo not drawn) [compound 48],32,loss of activity,–
O=C(Cc1cccc(Cl)c1)Nc1ccccc1N1CCCCC1 [compound 49],–,loss of activity,–
"c1ccc(C(NCc2cccnc2)(c2ccccc2)c2ccccc2)cc1 [compound 3, UCL2077, reference compound]",–,–,fold less potent compared to previous values (KCNQ2 channels; [3]): ~ 7 fold
O=C(Nc1ccccc1N1CCCC1)C1(c2ccccc2)CC1 [compound 14],–,not tolerated,–
CCC(C(=O)Nc1ccccc1N1CCCC1)c1ccccc1Cl (stereo not drawn) [compound 30],–,–,fold loss of potency (KCNQ2 channels): 20 fold

# Second part, led by results:
inhibition at 30 µM (KCNQ2 channels) [%],SMILES,KCNQ2 activity (in words) (KCNQ2 channels),also measured
27.1,CCC(C(=O)Nc1ccccc1N(C)Cc1ccccc1)c1ccccc1 (stereo not drawn) [compound 64],–,–
28.1,CCC(C(=O)Nc1ccccc1OC)c1ccccc1 (stereo not drawn) [compound 63],–,–
25.4,CC(C)C(C(=O)Nc1ccccc1N1CCCC1)c1ccccc1 (stereo not drawn) [compound 9],not tolerated,–
